# Test results published in ChEMBL document CHEMBL4406890, “Discovery of a novel bicyclic compound, DS54360155, as an orally potent analgesic without mu-opioid receptor agonist activity” (Bioorg Med Chem Lett, 2019).
# pEC50, pIC50: −log10 of the molar value.
# Legend:
# Mus musculus [1] = experiment: Analgesic activity in ddY mouse assessed as reduction in total time spent in paw licking and biting during initial phase at 30 mg/kg, po pretreated for 30 mins followed by formalin challenge and measured for 15 mins post formalin challenge by formalin test relative to control; format: functional
# hERG (KCNH2) = hERG (KCNH2) (Homo sapiens, UniProt Q12809); experiment: Inhibition of human ERG at 10 uM relative to control
# Mus musculus [2] = experiment: Analgesic activity in ddY mouse model of acetic acid-induced writhing assessed as inhibition of writhing numbers at 30 mg/kg, po pretreated for 30 mins followed by acetic acid challenge and measured for 25 mins relative to control; format: functional
# [3] = Metabolic stability in CD1 mouse liver microsomes assessed as parent compound remaining incubated for 0.5 hrs in presence of beta-NADP by LC-MS/MS analysis; format: ADME, Microsome; conditions: read-out: Stability
# Mu-type opioid receptor [4] = molecular target: T1, Mu-type opioid receptor (Homo sapiens, UniProt P35372); experiment: Agonist activity at human mu opioid receptor expressed in CHOK1 cells assessed as inhibition of forskolin-induced cAMP production by FRET assay; format: cell-based
# Mus musculus [5] = experiment: Analgesic activity in oral dosed ddY mouse model of acetic acid-induced writhing pretreated for 30 mins followed by acetic acid challenge and measured for 25 mins; format: functional
# Mu-type opioid receptor [6] = molecular target: T1, Mu-type opioid receptor; experiment: Agonist activity at human mu opioid receptor expressed in CHOK1 cells assessed as inhibition of forskolin-induced cAMP production by FRET assay relative to DAMGO; format: cell-based
# [7] = Cmax in ddY mouse at 10 mg/kg, po measured after 3 mins by LC-MS/MS analysis; format: ADME, organism-based; design: dose 10 mg/kg, route oral; conditions: in vivo
# [8] = AUC in ddY mouse at 10 mg/kg, po measured after 3 mins by LC-MS/MS analysis; format: ADME, organism-based; design: time < 0.05 hr, dose 10 mg/kg, route oral; conditions: in vivo
# [9] = Half-life in ddY mouse at 10 mg/kg, po measured after 3 mins by LC-MS/MS analysis; format: ADME, organism-based; conditions: in vivo
# [10] = 1-Octanol/phosphate buffered-saline distribution coefficient, logD of compound at pH 7.4; format: physicochemical
# Mus musculus [11] = experiment: Analgesic activity in ddY mouse model of acetic acid-induced writhing assessed as inhibition of writhing numbers at 10 mg/kg, po pretreated for 30 mins followed by acetic acid challenge and measured for 25 mins relative to control; format: functional
# [12] = Clearance in ddY mouse at 1 mg/kg, iv measured after 3 mins by LC-MS/MS analysis; format: ADME, organism-based; conditions: in vivo
# Mus musculus [13] = experiment: Analgesic activity in ddY mouse model of acetic acid-induced writhing assessed as inhibition of writhing numbers at 3 mg/kg, po pretreated for 30 mins followed by acetic acid challenge and measured for 25 mins relative to control; format: functional
# [14] = Volume of distribution in ddY mouse at 1 mg/kg, iv measured after 3 mins by LC-MS/MS analysis; format: ADME, organism-based; conditions: in vivo
# Mu-type opioid receptor [15] = molecular target: T1, Mu-type opioid receptor; experiment: Displacement of [3H]-diprenorphin from human mu opioid receptor incubated for 1 hr; format: ADME
# T1 sequence (P35372 whole entry): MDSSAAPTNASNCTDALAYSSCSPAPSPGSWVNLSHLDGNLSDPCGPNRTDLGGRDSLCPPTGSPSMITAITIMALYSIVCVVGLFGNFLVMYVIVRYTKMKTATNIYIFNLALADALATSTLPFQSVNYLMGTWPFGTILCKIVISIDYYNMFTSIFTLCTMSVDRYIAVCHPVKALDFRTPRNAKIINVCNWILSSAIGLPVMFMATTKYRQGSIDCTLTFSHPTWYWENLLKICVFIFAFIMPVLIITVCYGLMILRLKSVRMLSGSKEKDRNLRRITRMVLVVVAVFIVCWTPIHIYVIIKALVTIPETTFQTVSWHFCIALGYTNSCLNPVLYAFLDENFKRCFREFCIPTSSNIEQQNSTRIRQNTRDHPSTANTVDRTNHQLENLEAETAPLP
# Sequence of hERG (KCNH2) (Q12809 whole entry): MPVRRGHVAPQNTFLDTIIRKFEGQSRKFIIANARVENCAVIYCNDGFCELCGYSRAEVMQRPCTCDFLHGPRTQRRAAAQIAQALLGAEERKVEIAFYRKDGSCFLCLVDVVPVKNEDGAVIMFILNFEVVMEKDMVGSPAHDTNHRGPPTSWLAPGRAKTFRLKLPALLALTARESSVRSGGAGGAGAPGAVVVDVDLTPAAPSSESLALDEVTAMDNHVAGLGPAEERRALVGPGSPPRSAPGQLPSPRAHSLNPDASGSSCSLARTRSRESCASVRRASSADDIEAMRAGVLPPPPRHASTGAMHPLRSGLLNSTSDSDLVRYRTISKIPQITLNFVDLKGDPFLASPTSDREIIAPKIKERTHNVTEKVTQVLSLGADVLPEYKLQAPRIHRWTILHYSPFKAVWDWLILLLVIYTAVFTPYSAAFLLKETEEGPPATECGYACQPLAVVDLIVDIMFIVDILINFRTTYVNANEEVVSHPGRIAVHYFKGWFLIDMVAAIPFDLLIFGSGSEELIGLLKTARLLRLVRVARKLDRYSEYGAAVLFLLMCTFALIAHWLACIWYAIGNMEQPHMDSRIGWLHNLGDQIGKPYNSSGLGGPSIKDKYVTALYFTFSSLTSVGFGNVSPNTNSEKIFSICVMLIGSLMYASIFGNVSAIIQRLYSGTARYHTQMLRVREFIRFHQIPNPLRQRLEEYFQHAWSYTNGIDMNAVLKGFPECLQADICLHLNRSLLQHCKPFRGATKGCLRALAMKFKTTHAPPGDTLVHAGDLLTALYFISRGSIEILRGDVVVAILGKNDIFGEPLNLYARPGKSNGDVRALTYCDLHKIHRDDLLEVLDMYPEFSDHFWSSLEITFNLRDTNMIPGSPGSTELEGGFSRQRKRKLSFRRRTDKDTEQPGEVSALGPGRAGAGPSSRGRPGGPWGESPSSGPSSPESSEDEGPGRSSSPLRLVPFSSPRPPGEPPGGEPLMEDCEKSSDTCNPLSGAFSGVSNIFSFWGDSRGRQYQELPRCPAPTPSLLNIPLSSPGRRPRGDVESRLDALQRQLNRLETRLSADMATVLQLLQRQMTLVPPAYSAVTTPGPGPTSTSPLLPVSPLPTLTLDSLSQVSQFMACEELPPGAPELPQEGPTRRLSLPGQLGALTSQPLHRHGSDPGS
Compound,inhibition in vivo at 30 mg/kg (Mus musculus [1]) [%],inhibition at 10 µM (hERG (KCNH2)) [%],inhibition in vivo at 30 mg/kg (Mus musculus [2]) [%],remaining at 0.5 h [3] [%],pEC50 (Mu-type opioid receptor [4]),ED50 (Mus musculus [5]) [mg/kg],Emax (Mu-type opioid receptor [6]) [%],Cmax [7] [nM],AUC at 0.05 h [8] [µM·h],half-life [9] [h],logD [10],inhibition in vivo at 10 mg/kg (Mus musculus [11]) [%],clearance [12] [mL/min/kg],inhibition in vivo at 3 mg/kg (Mus musculus [13]) [%],Vd [14] [L/kg],pIC50 (Mu-type opioid receptor [15])
C/C=C1/CN2CC[C@H]1C(=O)c1[nH]c3ccccc3c1C2.O=S(=O)(O)O,43,63,49,34,< 4.00,32,,,,,,,,,,
CN1C(=O)c2[nH]c3ccccc3c2CN2CC[C@H]1C2.O=S(=O)(O)O,83,14,95,99,< 4.00,12,19,2150,5.8,2.27,0.7,23,24.9,19,1.72,< 4.00
CCCN1C(=O)c2[nH]c3ccccc3c2CN2CCC1C2 (racemic),,43,44,72,,,,,,,1.6,,,,,
CN1C(=O)c2[nH]c3ccccc3c2CN2CCC1C2.O=S(=O)(O)O (racemic),,26,83,> 100,,21,,1460,3.29,1.69,0.7,,,,,
CCN1C(=O)c2[nH]c3ccccc3c2CN2CCC1C2 (racemic),,14,43,91,,,,,,,1.1,,,,,
CCN1CCCC(=O)c2[nH]c3ccccc3c2C1,,73,36,49,,,,,,,1.3,,,,,
CN1C(=O)c2[nH]c3ccccc3c2CN2CCC1(C)C2 (racemic),,36,37,93,,,,,,,0.7,,,,,
CN1C(=O)c2[nH]c3ccccc3c2CN2CCC[C@@H]1C2,,,65,82,,,,,,,0.9,,,,,
O=C1c2[nH]c3ccccc3c2CN2CCC3(CCCN13)C2 (racemic),,13,47,82,,,,,,,1.2,,,,,
CC12CCCN(CC1)Cc1c([nH]c3ccccc13)C2=O (racemic),,88,21,91,,,,,,,1.5,,,,,
CN1C(=O)c2[nH]c3ccccc3c2CN2CC[C@@H]1C2.O=S(=O)(O)O,30,23,49,> 100,< 4.00,27,18,2990,12.2,2.52,0.7,,12.9,,1.14,< 4.00
CN1C(=O)c2[nH]c3ccccc3c2CN2CCC[C@H]1C2,,38,77,74,,23,,720,1.59,2.18,1,,,,,
O=C1c2[nH]c3ccccc3c2CN2CCC(C2)N1C1CC1 (racemic),,19,55,92,,,,,,,1.1,,,,,
CN1CCCC(=O)c2[nH]c3ccccc3c2C1,,50,31,53,,,,,,,1.1,,,,,
